Results: patent US20260055364A1, “Methods for Improving Sperm Function and Fertilizing Ability for Assisted Reproduction Techniques” (Consejo Nacional de Investigaciones Cientificas y Técnicas …, priority 2022, published 2026)

How the values were obtained:
sperm = conditions: cited from earlier work
mouse sperm = conditions: cited from earlier work
human sperm [1] = conditions: high-concentration ionophore treatment and removal; cited from earlier work
human sperm [2] = assay: Sperm motility analysis (CASA) of human sperm after ionophore and/or temperature treatment; format: cell-based; conditions: 0.5 μM for 2 min before incubation at 40° C. for 30 min; FIG. 2A
Description: Sperm Motility Analysis: Aliquots of 9.7 μl of sperm suspensions were placed on slides under 18 mm×18 mm coverslips, obtaining a preparation depth of 30 μm, and maintained at 37° C. using a temperature-controlled stage. Sperm motility parameters were evaluated using the Sperm Class Analyzer® system (SCA v.6.2.0.1., Microptic SL, Barcelona, Spain), acquiring 60 frames per second. At least 5 microscopic fields and 300 sperm were analyzed. The following parameters were assessed: curvilinear velocity (VCL, μm/s), straight line velocity (VSL, μm/s), average path velocity (VAP, μm/s), linearity ([…]), straightness (STR×100, %), wobble (WOB: VAP/VCL×100, a measure of sperm head side to side movement, %), amplitude of lateral head displacement (ALH, μm) and beat cross frequency (BCF, Hz). Sperm motility was measured and classified as follows: rapid progressive (VCL≥35 μm/s; STR≥80%), medium progressive (VCL≥15 μm/s; STR≥80%), in situ (VCL<15 μm/s; VAP≥5 μm/s) and immotile (VAP<5 μm/s). Percentages of total (rapid progressive+medium progressive+in situ) and progressive (rapid+medium progressive) motility were recorded. Drifting was set in 25 μm/s. Sperm were considered hyperactivated when presenting VCL≥150 μm/s, LIN<50% and ALH≥3.5 μm.
Semen samples from healthy men were processed by density gradient centrifugation as stated in Example 1. […]

CNc1ccc2oc(C[C@H]3O[C@@]4(CC[C@H]3C)O[C@H]([C@H](C)C(=O)c3ccc[nH]3)[C@H](C)C[C@H]4C)nc2c1C(=O)O [A23187]
sperm HA (sperm; 0.5 and 1 μM): provoked sperm HA without immobilization | sperm motility (sperm; 5-10 μM, in a few minutes): immobilized sperm | intracellular Ca2+ concentrations (sperm; 5-10 μM): substantially elevated | hyperactivation after removal of the ionophore (mouse sperm; 10-20 μM for 10 min, then removal, Tateno et al): acquires HA | sperm motility (mouse sperm; 10-20 μM for 10 min, Tateno et al): immobilizes | fertility of sperm from CatSper1−/−, Slo3−/− and Adcy10−/− knock-out lines (mouse sperm; 10-20 μM for 10 min with posterior removal, Navarrete et al (2016)): overcomes infertility | motility after ionophore treatment (human sperm [1]): does not regain motility | levels of HA compared to control (human sperm [2]): higher levels of HA
